Results published in US12454529B2, “Piperazine cyclic ureas” (SIRONAX LTD., priority 2020, dated 2025).
pEC50: −log10 of the molar value.

Test system: HT-29 cells
Test: HT-29 cell necrosis/necroptosis inhibition (TNF-α + SMAC mimetic + zVAD-FMK; CellTiter-Glo cell viability)
Format: cell-based
Settings: Homo sapiens; HT-29 cells, TNF-α 10 ng/ml + SMAC mimetic 6 μM + zVAD-FMK 10 μM, 20 hours; geometric mean, 10 points in duplicate; read-out: EC50 (Cell activity; Necrosis/Necroptosis Inhibitory Activity, Compounds 1-142)
How it was run: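 HT-29 cells (~5,000/well) were switched to FBS-free McCOY's 5A holding TNF-α (10 ng/ml), SMAC mimetic (6 μM) and zVAD-FMK (10 μM), then dosed with a 10-point 1:3 series for 20 h at 37 °C. CellTiter-Glo luminescence gave viability; geometric mean EC50 from duplicates.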

| SMILES | pEC50 |
| --- | --- |
| Cn1c(-c2nc(N3CCN(C(=O)N4N=CC[C@H]4c4cc(F)cc(C#N)c4)CC3)ncc2F)cc(=O)n(C)c1=O [Compound 51, (S)-3-fluoro-5-(1-(4-(5-fluoro-1′,3′-dimethyl-2′,6′-dioxo-1′,2′,3′,6′-tetrahydro-[4,4′-bipyrimidin]-2-yl)piperazine-1-carbonyl)-4,5-dihydro-1H-pyrazol-5-yl)benzonitrile] | 7.00 to 10.00 |
| Cc1cnn(C)c1-c1nc(N2CCN(C(=O)N3N=CC[C@H]3c3cc(F)cc(F)c3)CC2)ccc1F [Compound 113, (S)-(5-(3,5-difluorophenyl)-4,5-dihydro-1H-pyrazol-1-yl)(4-(6-(1,4-dimethyl-1H-pyrazol-5-yl)-5-fluoropyridin-2-yl)piperazin-1-yl)methanone] | 7.00 to 10.00 |
| O=C(N1CCN(c2ncc(F)c(-c3ccc[nH]c3=O)n2)CC1)N1N=CC[C@H]1c1cc(F)cc(F)c1 [Compound 87, (S)-3-(2-(4-(5-(3,5-difluorophenyl)-4,5-dihydro-1H-pyrazole-1-carbonyl)piperazin-1-yl)-5-fluoropyrimidin-4-yl)pyridin-2(1H)-one] | 7.00 to 10.00 |
| N#Cc1cc(F)cc([C@@H]2CC=NN2C(=O)N2CCN(c3nccc(-n4cc(C(N)=O)cn4)n3)CC2)c1 [Compound 102, (S)-1-(2-(4-(5-(3-cyano-5-fluorophenyl)-4,5-dihydro-1H-pyrazole-1-carbonyl)piperazin-1-yl)pyrimidin-4-yl)-1H-pyrazole-4-carboxamide] | 7.00 to 10.00 |
| Cc1nc(C)n(-c2nc(N3CCN(C(=O)N4N=CC[C@H]4c4cc(F)cc(F)c4)CC3)ncc2F)n1 [Compound 46] | 7.00 to 10.00 |
| O=C(N1CCN(c2nccc(-c3cc[nH]n3)n2)CC1)N1N=CC[C@H]1c1cc(F)cc(F)c1 [Compound 33, (S)-(4-(4-(1H-pyrazol-3-yl)pyrimidin-2-yl)piperazin-1-yl)(5-(3,5-difluorophenyl)-4,5-dihydro-1H-pyrazol-1-yl)methanone] | 7.00 to 10.00 |
| Cc1nn(CC2COC2)c(C)c1-c1nc(N2CCN(C(=O)N3N=CC[C@H]3c3cc(F)cc(C#N)c3)CC2)ncc1F [Compound 135, (S)-3-(1-(4-(4-(3,5-dimethyl-1-(oxetan-3-ylmethyl)-1H-pyrazol-4-yl)-5-fluoropyrimidin-2-yl)piperazine-1-carbonyl)-4,5-dihydro-1H-pyrazol-5-yl) fluorobenzonitrile] | 7.00 to 10.00 |
| O=C(N1CCN(c2nccc(-c3ccc[nH]3)n2)CC1)N1N=CC[C@H]1c1cc(F)cc(F)c1 [Compound 6, (S)-(4-(4-(1H-pyrrol-2-yl)pyrimidin-2-yl)piperazin-1-yl)(5-(3,5-difluorophenyl)-4,5-dihydro-1H-pyrazol-1-yl)methanone] | 7.00 to 10.00 |
| Cn1nncc1-c1nc(N2CCN(C(=O)N3N=CC[C@H]3c3cc(F)cc(F)c3)CC2)ncc1F [Compound 44, (S)-(5-(3,5-difluorophenyl)-4,5-dihydro-1H-pyrazol-1-yl)(4-(5-fluoro-4-(1-methyl-1H-1,2,3-triazol-5-yl)pyrimidin-2-yl)piperazin-1-yl)methanone] | 7.00 to 10.00 |
| Cn1cc(-c2nc(N3CCN(C(=O)N4N=CC[C@H]4c4cc(F)cc(C#N)c4)CC3)ncc2F)nn1 [Compound 40] | 7.00 to 10.00 |
| NC(=O)c1cnn(-c2nc(N3CCN(C(=O)N4N=CC[C@H]4c4cc(F)cc(F)c4)CC3)ncc2F)c1 [Compound 101, (5)-1-(2-(4-(5-(3,5-difluorophenyl)-4,5-dihydro-1H-pyrazole-1-carbonyl)piperazin-1-yl)-5-fluoropyrimidin-4-yl)-1H-pyrazole-4-carboxamide] | 7.00 to 10.00 |

Same assay, conditions: Homo sapiens; HT-29 cells, TNF-α 10 ng/ml + SMAC mimetic 6 μM + zVAD-FMK 10 μM, 20 hours; geometric mean, 10 points in duplicate; read-out: EC50 (Cell activity; Necrosis/Necroptosis Inhibitory Activity, Compounds 143-323)

| SMILES | pEC50 |
| --- | --- |
| Cc1nn(-c2nc(N3CCN(C(=O)N4N=CC[C@H]4c4cc(F)cc(C#N)c4)CC3)ncc2F)c(C)c1C#N [Compound 275, (S)-1-(2-(4-(5-(3-cyano-5-fluorophenyl)-4,5-dihydro-1H-pyrazole-1-carbonyl)piperazin-1-yl)-5-fluoropyrimidin-4-yl)-3,5-dimethyl-1H-pyrazole-4-carbonitrile] | 7.00 to 10.00 |
| Cc1nc(C)n(-c2ncc(F)c(N3CCN(C(=O)N4N=CC[C@H]4c4cc(F)cc(F)c4)CC3)n2)n1 [Compound 257, (S)-(5-(3,5-difluorophenyl)-4,5-dihydro-1H-pyrazol-1-yl)(4-(2-(3,5-dimethyl-1H-1,2,4-triazol-1-yl)-5-fluoropyrimidin-4-yl)piperazin-1-yl)methanone] | 7.00 to 10.00 |
| Cc1cnn(C)c1-c1nc(N2CCN(C(=O)N3N=CC[C@H]3c3cc(F)cc(C#N)c3)CC2)sc1CO [Compound 266, (S)-3-(1-(4-(4-(1,4-dimethyl-1H-pyrazol-5-yl)-5-(hydroxymethyl)thiazol-2-yl)piperazine-1-carbonyl)-4,5-dihydro-1H-pyrazol-5-yl)-5-fluorobenzonitrile] | 5.00 to 6.00 |
| Cn1ncnc1-c1nc(N2CCN(C(=O)N3N=CCC3c3ncccc3Cl)CC2)ncc1F (stereo not shown) [Compound 221] | 7.00 to 10.00 |
| O=C(N1CCN(c2ncc(F)c(-n3cnc(C(F)(F)F)n3)n2)CC1)N1N=CC[C@H]1c1ccccc1 [Compound 312, (S)-(4-(5-fluoro-4-(3-(trifluoromethyl)-1H-1,2,4-triazol-1-yl)pyrimidin-2-yl)piperazinyl)(5-phenyl-4,5-dihydro-1H-pyrazol-1-yl)methanone] | 7.00 to 10.00 |
| Cc1nn(-c2cc(N3CCN(C(=O)N4N=CC[C@H]4c4cncc(F)c4)CC3)ncn2)c(C)c1C(N)=O [Compound 284, (S)-1-(6-(4-(5-(5-fluoropyridin-3-yl)-4,5-dihydro-1H-pyrazole-1-carbonyl)piperazin-1-yl)pyrimidin-4-yl)-3,5-dimethyl-1H-pyrazole-4-carboxamide] | 6.00 to 7.00 |
| Cc1nc(C)n(-c2nc(N3CCN(C(=O)N4N=CC[C@H]4c4cc(F)cc(F)c4F)CC3)ncc2F)n1 [Compound 264, (S)-(4-(4-(3,5-dimethyl-1H-1,2,4-triazol-1-yl)-5-fluoropyrimidin-2-yl)piperazin-1-yl)(5-(2,3,5-trifluorophenyl)-4,5-dihydro-1H-pyrazol-1-yl)methanone] | 7.00 to 10.00 |
| Cc1nn(-c2ccnc(N3CCN(C(=O)N4N=CC[C@H]4c4cc(F)cc(C#N)c4)CC3)n2)c(C)c1Br [Compound 273, (S)-3-(1-(4-(4-(4-bromo-3,5-dimethyl-1H-pyrazol-1-yl)pyrimidinyl)piperazine-1-carbonyl)-4,5-dihydro-1H-pyrazol-5-yl)-5-fluorobenzonitrile] | 7.00 to 10.00 |
| Cc1nc(C)n(-c2nc(N3CCN(C(=O)N4N=CCC4c4csc(C)n4)CC3)ncc2Cl)n1 (stereo not shown) [Compound 224, (4-(5-chloro-4-(3,5-dimethyl-1H-1,2,4-triazol-1-yl)pyrimidin-2-yl)piperazin-1-yl)(5-(2-methylthiazol-4-yl)-4,5-dihydro-1H-pyrazol-1-yl)methanone] | 6.00 to 7.00 |
| CCn1nc(C)n(-c2nc(N3CCN(C(=O)N4N=CC[C@H]4c4cc(F)cc(F)c4)CC3)ncc2F)c1=O [Compound 182, (S)-4-(2-(4-(5-(3,5-difluorophenyl)-4,5-dihydro-1H-pyrazole-1-carbonyl)piperazin-1-yl)-5-fluoropyrimidin-4-yl)-2-ethyl-5-methyl-2,4-dihydro-3H-1,2,4-triazol-3-one] | 7.00 to 10.00 |
| Cn1ncnc1-c1nc(N2CCN(C(=O)N3N=CC[C@H]3c3cc(F)cc(C#N)c3)CC2)ncc1Cl [Compound 166, (S)-3-(1-(4-(5-chloro-4-(1-methyl-1H-1,2,4-triazol-5-yl)pyrimidin-2-yl)piperazine-1-carbonyl)-4,5-dihydro-1H-pyrazol-5-yl)-5-fluorobenzonitrile] | 7.00 to 10.00 |
